In patent publication US20200170247A1, “HAND DISINFECTANTS” (priority 2014, published 2020):

Test system: microbial load on the hands
Assay: hand disinfectant experiment according to EN 1500
Assay type: in vivo
Conditions: EN 1500, six samples per product; reference 60% 2-propanol (vol/vol)
Excerpt: The state of the art for hand disinfectants is described by the test methods, in which an agent is examined in regard to its efficiency. Currently, all agents, which are to be approved for hygienic hand disinfection have to be examined according to standard EN1500. The EN 1500 uses as a microbicidal reference substance 60% 2-propanol (vol/vol) in water. […] In these cases, the effectiveness of alcoholic hand disinfectants with or without the addition of quaternary ammonium compounds is more or less the same. It has also been known that products are possible, which contain as an active agent about 4% of a quaternary ammonium compound or a guanidine and contain, apart from this compound, solubilizers like propylene glycol, butylene glycol and other polyalcohols, so that the products have a degreasing effect on the skin. Unfortunately, all of these products were effective only according to the new standards EN 1499, hand decontamination, which have to meet less stringent requirements than the EN 1500. Agents, which only have to meet the requirements of the EN1499 have to be better than soap in a comparative test. Whereas for passing the EN 1500, in general, a microbial reduction of 4.5 log increments (i.e., a 4.5 log reduction) is required, passing the EN 1499 in general requires 3 log increments (i.e., a 3 log reduction). This is only 3% of the reduction required by the EN 1500. […]

CC(C)O [60% 2-propanol (vol/vol), 2-propanol]
Reduction factor: 4.1-4.6
